US9453050B2, “Compositions for treating glioma” (GLIA SP Z.O.O., priority 2011, dated 2016)

Tests used:
microglia cells [1] = assay: Real-Time PCR of M2 phenotype markers and iNOS in microglia treated with U87-MG GCM plus peptides; type: cell-based, mouse; conditions: 500 μM peptide in GCM, 6 h
Description: (§1) Total RNA (2 μg) isolated from microglia cultures untreated or treated for 6 h with LPS or G-CM was used as a template to generate cDNA. As endogenous control 18S (Hs99999901_s1) rRNA was applied. Gene expression quantification was performed using the Applied Biosystem TaqMan® The real time amplifications were performed in duplicates in a 20 μl reaction volume containing 2×SYBR PCR MasterMix and a set of primers designed using PRIMER EXPRESS software for the following genes: iNOS, COX-2, II1beta, TNF alpha, MMP-2, MMP-9, MMP-14, Arg1, Id1 and c-Myc. The amount of target mRNA was first normalized to the 18S RNA expression level and then to a control. Data were analysed by the Relative Quantification (^ΔΔCt) method using 7500 System SDS software (Applied Biosystems). The expression of each product was normalized to 18S rRNA and is shown as the ratio of the target gene to 18S gene expression, calculated by 2^−ΔΔCt.
U87-MG human glioma cells were plated on 100 mm culture dishes in a total volume of 8 mL culture medium for 24 h. […]
The expression level of genes that were previously identified as markers of the M2 microglia/macrophage phenotype (see FIG. 4.) such as: Arg1, Id1, c-Myc and MMP-14 was determined using Real-Time PCR. Likewise, the expression level of iNOS was determined to evaluate induction of an immune response. […]

[2] = test system: rat primary microglia cultures; assay: GCM-induced amoeboid transformation of microglia (F-actin staining); type: cell-based; conditions: pre-incubation with 500 μM peptide; FIG. 6A
Description: Cell culture and treatment. Primary cultures of rat microglia were prepared from 1-day-old Wistar rat pups as described previously (Zawadzka and Kaminska 2003). Briefly, cells were isolated from cerebral cortices by trypsination, mechanically dissociated and plated at the density of 3×10^5 cells/cm^2 in Dulbecco's modified Eagle medium (with Glutamax and high-glucose formula 4.5 g/L, Gibco) supplemented with heat-inactivated 10% fetal bovine serum (Gibco), 100 U/mL penicillin, and 0.1 mg/mL streptomycin on poly-L-lysine coated culture 75 cm^2 flasks. Murine pEGFP-GL261 glioma cells were cultured in DMEM with 10% FBS and antibiotics (50 U/ml penicillin, 50 μg/ml streptomycin). Primary cultures of astrocytes were prepared from cerebral cortex of 2-day-old C57BL/6 newborn mice. Astrocytes were cultured in DMEM media with high glucose supplemented with 10% FBS, 100 U/ml penicillin and 100 μg/ml streptomycin. Culture medium was changed after 3 days and then twice a week. Cell cultures were maintained at 37° C. in humidified 5% CO2/95% air incubator (Heraeus, Hanau, Germany). […]
Cells were washed with a phosphate buffer saline (PBS) and fixed with 2% paraformaldehyde at indicated time periods. […] Morphological alterations were monitored by fluorescent microscopy with excitation 450-490 nm, recorded with 20× objective. […]

[3] = test system: rat primary microglia cultures; assay: Scratch assay of microglia motility; type: cell-based; conditions: GCM with RGD inhibitor; FIG. 6C
Description: Microglia were platted on a 35 mm Petri dish at the density of 1.5×10^6 cells and after 48 hours the cultures were gently scratched using a pipette tip and microglia cells were cultured under various experimental conditions (control, 100 ng/mL LPS or G-CM). Motility of microglia cells was determined 3 hours after treatment. Migrating cells were visualized by phase-contrast microscopy.
Using the rat lactadherin amino acid sequence, a 7-aa RGD-containing peptide (RGD) was designed as a competitive inhibitor (set forth in SEQ ID NO: 18). A scrambled sequence peptide was used as a control (SCR). Pre-incubation with the chemically synthesized 500 μM RGD peptide, but not with the SCR peptide, prevented transformation of microglia into amoeboid cells following GCM induction (amoeboid cells indicated with arrows) (FIG. 6A).

[4] = test system: phosphorylated FAK, Akt and ERK in microglia cells; assay: Immunoblotting of phosphorylated kinases in GCM-treated microglia; type: cell-based, rat; conditions: pre-treatment with peptide; FIG. 6E
Description: Whole cell lysates were prepared by scraping the cells into the buffer containing phosphatase and protease inhibitors (20 mM Tris HCl, pH6.8, 137 mM sodium chloride, 25 mM β-glycerophosphate, 2 mM sodium pyrophosphate, 2 mM EDTA, 1 mM sodium orthovanadate, 1% Triton X-100, 10% glycerol, 5 μg/ml leupeptin, 5 μg/ml aprotinin, 2 mM benzamidine, 0.5 mM DTT, 1 mM PMSF). The protein concentration was determined with the Bradford assay (Sigma-Aldrich, Saint Louis, Mo., USA). Protein extracts were separated on SDS-PAGE before electrophoretic transfer onto a nitrocellulose membrane (Amersham Biosciences, Germany) as described (Ellert-Miklaszewska et al. 2005; Sliwa et al. 2007). After blocking with 5% non-fat milk in TBS-T (Tris-buffered saline pH 7.6/0.15% Tween 20) the membranes were incubated with primary antibodies diluted in a blocking buffer overnight and then with relevant secondary antibodies for one hour. Antibodies recognizing phosphorylated and total forms of p38, ERK1/2, JNK, STAT1, STAT3, STATS, AKT, FAK and IκB as well as Cox-2 (all diluted 1:1000) and horseradish peroxidase-conjugated anti-rabbit IgG (diluted 1:2000) were purchased from Cell Signaling Technology (Beverly, Mass., USA); iNOS (diluted 1:2000) from BD Biosciences (Bedford, Mass., USA). Immunocomplexes were visualized by using ECL (Amersham). […]

[5] = test system: rat primary microglia cultures; assay: Phagocytosis of fluorescent beads by GCM-treated microglia; type: cell-based; conditions: 500 μM peptide; FIG. 6B
Description: Microglia cells (1×10^5) were seeded on 24-wells plates and after 24 hours cells were transfected with 25 nM control non-targeting siRNA, and siRNA to αv or β3, or two siRNA together (ON-TARGET siRNA, Dharmacon) using 0.25 μl of DharmaFECT 3 transfection reagent in 0.5 ml culture medium. After 48 h the transfection medium was replaced by G-CM and phagocytic properties of microglia were determined as described. To estimate the silencing efficiency cells were removed from the culture plates by trypsynization and suspended in MACS buffer (PBS, 2 mM EDTA, 0.5% BSA) at final concentration 1×10^5 cells/100 μl. Cell surface expression of the integrins was analysed using primary antibodies to αv or β3 (BD Biosciences) and anti-mouse-Alexa Fluor 647 secondary antibody (Invitrogen). The fluorescent intensity of the labelled cells was analysed with FACSCalibur (Beckton Dickinson). The mean fluorescent intensity was compared with the control siRNA and expressed as the relative change to the control condition for each experimental siRNA.
Phagocytic properties of microglia were determined by incubation of cells with 2 μm fluorescent latex beads (Sigma-Aldrich, Saint Louis, Mo., USA) for 90 min. […] The percentage of cells with none/low (<2 beads per cell), medium (≧2<10) or high (≧10 beads per cell) phagocytic activity was counted. […]

microglia cells [6] = assay: qPCR of GCM-induced genes in microglia exposed to GCM of shRNA-expressing C6 glioma cells; type: cell-based, rat; conditions: FIG. 7B
Description: as §1
To investigate the role of identified proteins in GCM-induced activation of microglia cells, stable C6 glioma cell lines expressing shRNAs specific to osteopontin (shSPP1), or a control, negative shRNA (shNeg) were generated. Silencing efficiency was approximately 98.5% (FIGS. 7A and C). Silencing of […] inhibited GCM-induced expression c-Myc and smad7 in microglia cells (FIG. 7B). […]

## DGRGDSV (SYNTHTIC PEPTIDE) [OPN inhibiting peptide]
Microglia cells [1]; FIG. 17B-C
  Id1 expression level (M2 marker): down-regulated
Microglia cells [1]; vs control peptide, FIG. 17A
  Arg1 expression level (M2 marker): down-regulated

## DQIGFRT [SCR peptide, reference compound]
[2]
  transformation of microglia into amoeboid cells following GCM induction: not

## TQRGDIF [RGD peptide]
[3]
  microglia migration in a scratch assay: completely blocked
[4]
  activation of phosphorylated FAK, Akt and ERK kinases by GCM: abolished
[5]
  GCM-induced phagocytosis: completely blocked
[2]
  transformation of microglia into amoeboid cells following GCM induction: prevented

B1: lactadherin shRNA: shRNA to rat lactadherin, oligonucleotides SEQ ID NO: 25 and 26, stably expressed in C6 glioma cells (nucleic acid)
chain 1: GATCCGGATGAAAGCGGAACCGGATTCAAGAGATCCGGTTCCGCTTTCATCCTGTTTTTTGGAAA
chain 2: AGCTTTTCCAAAAAACAGGATGAAAGCGGAACCGGATCTCTTGAATCCGGTTCCGCTTTCATCCG
modifications: the letters are possibly those of the target site
Microglia cells [6]
  GCM-induced expression c-Myc and smad7 in microglia cells: inhibited
